The target in assay [1] is T1, human PI3Kalpha p110 catalytic subunit (Rat-1 pBABEpuro Myr-HA-hp110alpha) (Homo sapiens, UniProt P42336).
T1 construct: Myr (myristoylation signal) (N); HA (N); expressed in transfected cells; host or cells: Rat-1
The assay is described as follows: Cellular assay PI3Kalpha (p-Akt(S473) SureFire, Rat-1_PI3Kalpha cells). It is filed as cell-based. The settings on record: 1 h compound treatment, read-out: Rat1-PI3Ka/ IC50. From the text: AlphaScreen (Amplified Luminescent Proximity Homogeneous Assay, ALPHA, Perkin Elmer) is a non-radioactive bead-based proximity assay technology to study biomolecular interactions in a homogenous microtiter plate format. The brand name SureFire denotes AlphaScreen assays that are adapted to quantify the phosphorylation of endogenous cellular proteins in cell lysates, by using matched antibody pairs, which consist of an anti-phospho-kinase and an anti-kinase antibody. The assay allows characterization of kinase signaling in cells as well as measurement of kinase inhibitor effects. The AlphaScreen technology provides several advantages over standard assay techniques such as ELISA, as it avoids time-consuming washing procedures and reduces plate handling. Furthermore, it is miniaturizable at least to a 384-well format and provides sensitivity down to the femtomolar range, dependent on the affinity of the antibodies included in the individual AlphaScreen SureFire assay kit. High sensitivity is reached by an intrinsic amplification mechanism, which involves production of singlet oxygen molecules. SureFire assay kits are commercially available for specific targets and include pairs of validated antibodies (PerkinElmer). This report describes common procedures applied for AlphaScreen SureFire assays and respective semi-automated steps for routine kinase inhibitor profiling in cell-based assays.
The Rat-1 cell lines stably overexpressing activated PI3K class I isoforms Rat-1 pBABEpuro Myr-HA-hp110 delta (Rat-1_PI3Kdelta) and Rat-1 pBABEpuro Myr-HA-hp110alpha (Rat-1_PI3Kalpha) and Rat-1 pBABEpuro Myr-HA-hp110 beta (Rat-1_PI3beta) were prepared as described (Maira S M, Stauffer F, Brueggen J, Furet P, Schnell C, Fritsch C, Brachmann S, Chène P, de Pover A, Schoemaker K, Fabbro D, Gabriel D, Simonen M, Murphy L, Finan P, Sellers W, García-Echeverría C (2008), Mol Cancer Ther. 7:1851-63 and Maira S M, Pecchi S, Brueggen J, Huh K, Schnell C, Fritsch C, Nagel T, Wiesmann M, Brachmann S, Dorsch M, Chène P, Schoemaker K, De Pover A, Menezes D, Fabbro D, Sellers W, García-Echeverría C, Voliva C F (2011), Mol. Cancer Ther., accepted). All cell lines were cultivated in complete growth medium (DMEM high glucose, 10% (v/v) fetal bovine serum, 1% (v/v) MEM NEAA, 10 mM HEPES, 2 mM L-glutamine, puromycin (10 μg/mL for Rat-1_PI3Kdelta and Rat-1_PI3Kalpha, 4 ug/mL for Rat-1_PI3beta), 1% (v/v) Pen/Strep) to 90% confluency at 37° C./5% CO2/90% humidity in a humidified CO2 incubator and were split twice a week.
The following materials were used for p-AKT(S473) detection in Rat-1 cell lysates: Dulbecco's modified Eagle's medium (DMEM) high glucose (Gibco Invitrogen, Basel, Switzerland, Cat. No. 41965), Heat Inactivated Fetal Bovine Serum, Qualified (HI FBS; Gibco Invitrogen, Basel, Switzerland, Lot. No. 16140), MEM non essential amino acids (NEAA; Gibco Invitrogen, Basel, Switzerland, Cat. No. 11140), HEPES (Gibco Invitrogen, Basel, Switzerland, Cat. No. 15630), Penicillin/Streptomycin (Pen/Strep, 100×; Gibco Invitrogen, Basel, Switzerland, Cat. No. 15140-122), L-Glutamine (Gibco Invitrogen, Basel, Switzerland, Cat. No. 25030), Puromycin (Sigma Aldrich, Buchs, Switzerland, Cat. No. P9620), DMSO (MERCK, Dietikon, Switzerland, Cat. No. 8.02912.2500), H2O, MilliQ-H2O unless otherwise stated (MILLIPORE QGARDOOR1, Millipore, Zug, Switzerland), Bovine serum albumine (BSA; Sigma Aldrich, Buchs, Switzerland Cat. No. A8412), SureFire p-Akt 1/2 (Ser473) Assay Kit (PerkinElmer, Schwerzenbach, Switzerland, Cat. No. TGRAS50K).
The p-Akt(S473) SureFire assay measures the phosphorylation of endogenous cellular Akt 1/2 at Ser473 in cell lysates. Using Rat-1 cells stably expressing myr-HA-tagged versions of the human PI3Kdelta, PI3Kalpha, or PI3Kbeta p110 catalytic subunit isoforms, the assay was developed as a two-plate protocol in a 384-well format.

A further assay deals with T2, mTOR (Mus musculus, UniProt Q9JLN9).
T2 construct: endogenous in cells; host or cells: TSC1-/- MEF (mouse embryo fibroblasts)
As to the kind of experiment: Cellular assay mTOR (phospho-T389 S6K1 SureFire in TSC1-/- MEF cells). It is filed as cell-based. The text has this:
A cell based assay (384-well format) was developed for determination of compound effects on cellular mTOR kinase activity in MEF (mouse embryo fibroblasts) cells derived from mice lacking TSC1 (Tuberosclerosis Complex1) a potent suppressor of mTOR kinase activity. Due to lack of TSC1 the mTOR kinase is constitutively activated resulting in permanent phosphorylation of Thr 389 of S6 kinase 1 (S6K1) which is one of the downstream targets of mTOR.
Using a SureFire Kit that enables to determine the phosphorylation of Thr389 on the S6K1 an assay was developed, validated and implemented in the Alpha-Screen format that allows the quantitative determination of phospho-T389 of S6K1 in cell lysates. […] These were in agreement with those values obtained with the biochemical mTOR ATP-binding assay enabling a quantitative comparison of potency of mTOR inhibitors.
TSC1−/− MEFs cells (Kwiatkowski, D. J., Zhang, H., Bandura, J. L., Heiberger, K. M., Glogauer, M., el-Hashemite, N., and Onda, H. (2002) Hum. Mol. Genet. 11, 525-534) were cultured in DMEM high glucose medium supplemented with 10% FBS (Invitrogen), 2 mM Glutamine and 1% (w/v) Penicillin/Streptomycin at 37° C., 5% CO2.
The SureFire kit for determination of P70S6kinase phosphorylation was purchased from Perkin Elmer (p70S6K p-T389, #TGR70S50K) and the assay was performed according to the instructions of the supplier and according to the generic method for SureFire assays. Shortly, 5 μL cell lysate per well were transferred to 384-well white proxy-plates (for luminescent readout) and mixed with […] and […] (final volume: 12 μL). After 3 h incubation in the dark at RT luminescence was read with the Envision Reader (Perkin Elmer). Untreated cells were used as control (high control) and cells treated with 3 μM BEZ235 were used as low control. The assay window between the signals obtained for the high and the low controls were defined as 100% and compound effects were expressed as percent inhibition. IC50 values were calculated from the dose response curves by graphical extrapolation.

Where [2] appears, read: TSC1-/- MEF cells, read-out: mTOR S6K(T389)_TSC1ko/ IC50.
The mark [3] stands for this setting: second value / 3 of the 4 values / 3 of the 5 values as per footnote, read-out: mTOR S6K(T389)_TSC1ko IC50, further individual values (footnotes).

Where two headings read alike, the source gives them in different places.

T1 sequence (P42336 whole entry): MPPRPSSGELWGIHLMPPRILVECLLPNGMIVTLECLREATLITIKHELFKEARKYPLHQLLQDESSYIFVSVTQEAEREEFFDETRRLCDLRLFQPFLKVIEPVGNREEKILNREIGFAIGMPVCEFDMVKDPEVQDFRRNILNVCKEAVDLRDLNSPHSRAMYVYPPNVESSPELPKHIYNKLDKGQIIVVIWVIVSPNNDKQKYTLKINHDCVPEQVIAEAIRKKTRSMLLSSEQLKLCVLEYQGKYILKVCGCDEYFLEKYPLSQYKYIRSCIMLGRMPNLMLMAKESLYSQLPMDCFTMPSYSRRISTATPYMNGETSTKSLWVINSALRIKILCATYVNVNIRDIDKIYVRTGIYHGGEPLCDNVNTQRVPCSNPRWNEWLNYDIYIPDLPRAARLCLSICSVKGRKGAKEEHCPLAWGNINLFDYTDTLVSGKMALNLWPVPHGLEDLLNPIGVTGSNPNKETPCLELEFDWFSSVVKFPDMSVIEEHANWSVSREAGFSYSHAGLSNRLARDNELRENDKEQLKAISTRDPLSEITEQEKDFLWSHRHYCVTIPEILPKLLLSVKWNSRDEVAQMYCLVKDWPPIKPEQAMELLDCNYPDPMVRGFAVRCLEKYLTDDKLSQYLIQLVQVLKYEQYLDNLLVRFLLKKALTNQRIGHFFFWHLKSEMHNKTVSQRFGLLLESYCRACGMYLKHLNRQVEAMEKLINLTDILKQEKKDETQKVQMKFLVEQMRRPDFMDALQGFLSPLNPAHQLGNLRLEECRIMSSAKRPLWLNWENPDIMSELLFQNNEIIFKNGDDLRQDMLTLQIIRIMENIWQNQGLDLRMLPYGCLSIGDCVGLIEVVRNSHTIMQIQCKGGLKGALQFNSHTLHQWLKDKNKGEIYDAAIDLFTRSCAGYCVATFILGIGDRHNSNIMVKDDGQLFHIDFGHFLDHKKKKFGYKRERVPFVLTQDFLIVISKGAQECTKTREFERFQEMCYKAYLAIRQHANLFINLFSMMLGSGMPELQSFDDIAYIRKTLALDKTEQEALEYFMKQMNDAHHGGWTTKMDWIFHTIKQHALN
T1 sequence (Q63787 whole entry partner): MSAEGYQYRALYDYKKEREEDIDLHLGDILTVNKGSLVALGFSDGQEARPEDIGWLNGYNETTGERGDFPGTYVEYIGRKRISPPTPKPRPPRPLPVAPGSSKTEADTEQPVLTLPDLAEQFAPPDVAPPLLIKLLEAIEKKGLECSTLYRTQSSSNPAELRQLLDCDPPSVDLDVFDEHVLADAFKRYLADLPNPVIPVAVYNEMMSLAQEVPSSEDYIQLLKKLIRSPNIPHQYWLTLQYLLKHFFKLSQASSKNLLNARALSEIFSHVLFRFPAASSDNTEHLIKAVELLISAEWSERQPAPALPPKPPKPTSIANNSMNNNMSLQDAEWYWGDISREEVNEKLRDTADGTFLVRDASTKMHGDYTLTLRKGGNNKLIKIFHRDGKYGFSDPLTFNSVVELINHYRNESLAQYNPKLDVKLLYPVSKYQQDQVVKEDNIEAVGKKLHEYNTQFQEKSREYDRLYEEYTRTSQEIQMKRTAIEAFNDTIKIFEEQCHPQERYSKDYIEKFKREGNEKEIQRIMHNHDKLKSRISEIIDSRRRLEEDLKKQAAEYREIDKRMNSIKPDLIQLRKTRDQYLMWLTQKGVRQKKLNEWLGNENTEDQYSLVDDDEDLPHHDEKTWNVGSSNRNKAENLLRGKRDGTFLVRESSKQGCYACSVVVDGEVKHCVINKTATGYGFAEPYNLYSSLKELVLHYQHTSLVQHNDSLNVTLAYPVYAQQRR

Turning to `Nc1ncc(-c2cc(N3C(=O)OC[C@@H]3CCO)nc(N3CCOCC3)n2)c(C(F)(F)F)n1` [Example 9, (S)-3-(2′-Amino-2-morpholin-4-yl-4′-trifluoromethyl-[4,5′]bipyrimidinyl-6-yl)-4-(2-hydroxy-ethyl)-oxazolidin-2-one], the IC50 in assay [1] was 147 nM; at mTOR (setting [2]), 1260 nM; on mTOR (setting [3]) it was over 2270 nM.
As for `C[C@H]1OC(=O)N(c2cc(-c3cnc(N)nc3C(F)(F)F)nc(N3CCOC[C@@H]3C)n2)[C@H]1CO` [Example 10, (4S,5R)-3-[2′-Amino-2-((S)-3-methyl-morpholin-4-yl)-4′-trifluoromethyl-[4,5′]bipyrimidinyl-6-yl]-4-hydroxymethyl-5-methyl-oxazolidin-2-one], the IC50 in assay [1] was 61 nM; on mTOR (setting [2]), 2020 nM; on mTOR (setting [3]), over 2270 nM.
Regarding `Nc1ncc(-c2cc(N3CCOC3=O)nc(N3CCOCC3)n2)c(C(F)(F)F)n1` [Example 11, 3-(2′-Amino-2-morpholin-4-yl-4′-trifluoromethyl-[4,5′]bipyrimidinyl-6-yl)-oxazolidin-2-one, reference compound], the IC50 in assay [1] was 256 nM; at mTOR (setting [2]) it was 1410 nM; on mTOR (setting [3]), over 2270 nM.
In the case of `C[C@H]1OC(=O)N(c2cc(-c3cnc(N)nc3C(F)(F)F)nc(N3CCOCC3)n2)[C@H]1COC=O` [Example 12, Formic acid (4S,5R)-3-(2′-amino-2-morpholin-4-yl-4′-trifluoromethyl-[4,5′]bipyrimidinyl-6-yl)-5-methyl-2-oxo-oxazolidin-4-ylmethyl ester], the results for the IC50 (in assay [1]; at mTOR (setting [2])) were 113 nM and 1100 nM, respectively.
As for `C[C@H]1COCCN1c1nc(-c2cnc(N)nc2C(F)(F)F)cc(N2C(=O)OC[C@@H]2C)n1` [Example 13, (S)-3-[2′-Amino-2-((S)-3-methyl-morpholin-4-yl)-4′-trifluoromethyl-[4,5′]bipyrimidinyl-6-yl]-4-methyl-oxazolidin-2-one], the values for the IC50 (in assay [1]; on mTOR (setting [2])) were 58 nM and 1950 nM, respectively.
In the case of `Nc1ncc(-c2cc(N3C[C@@H](CO)OC3=O)nc(N3CCOCC3)n2)c(C(F)(F)F)n1` [Example 14, (S)-3-(2′-Amino-2-morpholin-4-yl-4′-trifluoromethyl-[4,5′]bipyrimidinyl-6-yl)-5-hydroxymethyl-oxazolidin-2-one], the results for the IC50 (in assay [1]; at mTOR (setting [2])) were 277 nM and over 2270 nM, respectively.
As for `C[C@H]1[C@H](CO)OC(=O)N1c1cc(-c2cnc(N)nc2C(F)(F)F)nc(N2CCOCC2)n1` [Example 15, (4S,5R)-3-(2′-Amino-2-morpholin-4-yl-4′-trifluoromethyl-[4,5′]bipyrimidinyl-6-yl)-5-hydroxymethyl-4-methyl-oxazolidin-2-one], the IC50 in assay [1] is 79 nM; at mTOR (setting [2]) it was 727 nM; on mTOR (setting [3]), over 2270 nM.
For `C[C@H]1CN(c2cc(-c3cnc(N)nc3C(F)(F)F)nc(N3CCOCC3)n2)C(=O)O1` [Example 16, (S)-3-(2′-Amino-2-morpholin-4-yl-4′-trifluoromethyl-[4,5′]bipyrimidinyl-6-yl)-5-methyl-oxazolidin-2-one], the IC50 in assay [1] was 108 nM; on mTOR (setting [2]), 942 nM.
In the case of `[2H]C1([2H])OC([2H])([2H])C([2H])([2H])N(c2nc(-c3cnc(N)nc3C(F)(F)F)cc(N3C(=O)OC[C@@H]3C)n2)C1([2H])[2H]` [Example 17, (S)-3-(2′-amino-2-D8-morpholino-4′-(trifluoromethyl)-[4,5′-bipyrimidin]-6-yl)-4-methyloxazolidin-2-one], the IC50 in assay [1] stood at 178 nM; on mTOR (setting [2]) it was 867 nM.
As to `C[C@H]1OC(=O)N(c2cc(-c3cnc(N)nc3C(F)(F)F)nc(N3CCOCC3)n2)[C@H]1CO` [Example 18, (4S,5R)-3-(2′-Amino-2-morpholin-4-yl-4′-trifluoromethyl-[4,5′]bipyrimidinyl-6-yl)-4-hydroxymethyl-5-methyl-oxazolidin-2-one], the IC50 in assay [1] came to 38 nM; at mTOR (setting [2]) it was 794 nM.
The corresponding values for `C[C@H]1[C@@H](CO)OC(=O)N1c1cc(-c2cnc(N)nc2C(F)(F)F)nc(N2CCOCC2)n1` [Example 19, (4S,5S)-3-(2′-Amino-2-morpholin-4-yl-4′-trifluoromethyl-[4,5′]bipyrimidinyl-6-yl)-5-hydroxymethyl-4-methyl-oxazolidin-2-one] are 50 nM and 423 nM.
The corresponding values for `Nc1ncc(-c2cc(N3C[C@H](CO)OC3=O)nc(N3CCOCC3)n2)c(C(F)(F)F)n1` [Example 20, (R)-3-(2′-Amino-2-morpholin-4-yl-4′-trifluoromethyl-[4,5′]bipyrimidinyl-6-yl)-5-hydroxymethyl-oxazolidin-2-one] are 158 nM and over 2270 nM.
In the case of `Nc1ncc(-c2cc(N3C(=O)O[C@H]4COC[C@H]43)nc(N3CCOCC3)n2)c(C(F)(F)F)n1` [Example 21, (3aR,6aR)-3-(2′-amino-2-morpholino-4′-(trifluoromethyl)-[4,5′-bipyrimidin]-6-yl)-tetrahydrofuro[3,4-d]oxazol-2(3H)-one], the IC50 amounted to 85 nM in assay [1] and 942 nM at mTOR (setting [2]).
For `C[C@H]1[C@@H](CCO)OC(=O)N1c1cc(-c2cnc(N)nc2C(F)(F)F)nc(N2CCOCC2)n1` [Example 23, (4S,5R)-3-(2′-Amino-2-morpholino-4′-(trifluoromethyl)-[4,5′-bipyrimidin]-6-yl)-5-(2-hydroxyethyl)-4-methyloxazolidin-2-one], the IC50 in assay [1] was determined as 20 nM; at mTOR (setting [2]), 1110 nM.

The values above are taken from patent publication US8865894B2, “Oxazolidin-2-one compounds and uses thereof” (Novartis AG, priority 2012, dated 2014).
